Series [1] deals with T1, M. tuberculosis InhA (Mycobacterium tuberculosis, UniProt P9WGR1).
T1 construct: made in house; host or cells: E. coli
As to the kind of experiment: InhA enzymatic inhibition assay (NADH oxidation at 340 nm). The series is classed as biochemical.

Series [2] concerns Mycobacterium tuberculosis. The note with it: cited from earlier work.
The target in series [3] is enoyl-acyl carrier protein reductase InhA enzyme. Also noted: method as in PMID 32987135. The conditions noted are these: cited from earlier work.
The mark [4] stands for this setting: 70 nM InhA, 2 h pre-incubation, 25 °C, pH 6.8, read-out: InhA inhibition IC50.

Converted amounts (≈) assume the structure as drawn. Where two headings read alike, the source gives them in different places.

T1 sequence (P9WGR1 whole entry, looked up): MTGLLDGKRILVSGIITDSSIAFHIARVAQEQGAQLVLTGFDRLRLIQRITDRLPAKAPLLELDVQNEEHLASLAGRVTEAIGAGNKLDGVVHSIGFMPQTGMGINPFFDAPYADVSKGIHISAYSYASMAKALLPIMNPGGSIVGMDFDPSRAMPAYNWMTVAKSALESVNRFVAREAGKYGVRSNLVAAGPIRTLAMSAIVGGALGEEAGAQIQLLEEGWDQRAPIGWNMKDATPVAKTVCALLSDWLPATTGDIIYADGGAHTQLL

As a reminder, the melting point is the temperature of the solid-liquid transition. By IC50 is commonly meant the concentration that gives 50% inhibition. For orientation: inhibition means the share of the control response that was lost under treatment. Low readings indicate a response near the control, high ones a response far below the control. In turn, `CC(=O)c1ccc(OCc2cn(CC(=O)Nc3ccccc3F)nn2)cc1` [Compound 9, 2-(4-((4-Acetylphenoxy)methyl)-1H-1,2,3-triazol-1-Yl)-N-(2-fluorophenyl)acetamide] registered a melting point of 179 to 180 °C. Further, in series [1], the midpoint of inhibition, the IC50, lay at 5 nM and the inhibition at 10 µM stood at 100%.

The molecule `CC(=O)c1ccc(OCc2cn(CC(=O)Nc3ccc([N+](=O)[O-])cc3)nn2)cc1` [Compound 10, 2-(4-((4-Acetylphenoxy)methyl)-1H-1,2,3-triazol-1-Yl)-N-(4-nitrophenyl)acetamide] had a melting point of 185 to 186 °C. In series [1], this molecule came in with an IC50 of 8 nM and an inhibition at 10 µM of 100%.

`CC(=O)c1ccc(OCc2cn(CC(=O)Nc3ccc(Cl)c(Cl)c3)nn2)cc1` [Compound 11, 2-(4-((4-Acetylphenoxy)methyl)-1H-1,2,3-triazol-1-Yl)-N-(3,4-dichlorophenyl)acetamide]: the melting point lay within 205 to 206 °C. Moreover, the IC50 in series [1] (setting [4]) came to 43 nM. In series [1], the inhibition at 10 µM amounted to 100%.

For `CC(=O)c1ccc(OCc2cn(CC(=O)NCc3ccc(F)cc3)nn2)cc1` [Compound 12, 2-(4-((4-Acetylphenoxy)methyl)-1H-1,2,3-triazol-1-Yl)-N-(4-fluorobenzyl)acetamide], the melting point lay within 165 to 166 °C. The IC50 in series [1] (setting [4]) came out at 41 nM. The molecule further came in with an inhibition at 10 µM in series [1] of 100%.

On to `CC(=O)c1ccc(OCc2cn(CC(=O)NCc3ccc(C)cc3)nn2)cc1` [Compound 13, 2-(4-((4-Acetylphenoxy)methyl)-1H-1,2,3-triazol-1-Yl)-N-(4-methylbenzyl)acetamide], for which the melting point was in the range of 180 to 182 °C. In addition, the IC50 in series [1] (setting [4]) stood at 84 nM. Moreover, 10 µM produced 100% inhibition in series [1].

Molecule `COc1ccc(CNC(=O)Cn2cc(COc3ccc(C(C)=O)cc3)nn2)cc1` [Compound 14, 2-(4-((4-Acetylphenoxy)methyl)-1H-1,2,3-triazol-1-Yl)-N-(4-methoxybenzyl)acetamide] gave a melting point of 125 to 126 °C. In series [1], this molecule came in with a concentration for half-maximal inhibition (IC50) of 2 nM and an inhibition at 10 µM of 100%.

As a reminder, the MIC is the lowest concentration found to suppress growth. Regarding `Clc1ccc(OCc2cn(Cc3ccc(Br)cc3)nn2)cc1` [Lead structure A], in series [2], the MIC is 5.8 µg/mL (≈ 15.3 µM).

Take `CC[C@H](CO)C(=O)c1ccc(OCc2ccccc2)cc1O` [Lead structure B]: in series [3], the concentration for half-maximal inhibition (IC50) is 380 nM.

On to `COc1ccccc1NC(=O)Cn1cc(COc2ccc3c(c2)CCC3)nn1` [Lead structure C], for which, in series [2], the MIC is 6.25 µg/mL (≈ 16.5 µM).

As for `O=C(Cn1cc(-c2ccccc2)nn1)Nc1ccccc1` [Lead structure D], the MIC in series [2] was 0.08 µg/mL (≈ 0.287 µM).

Turning to `CO[C@H]1/C=C/O[C@@]2(C)Oc3c(C)c(O)c4c(O)c(c(/C=N/N5CCN(C)CC5)c(O)c4c3C2=O)NC(=O)/C(C)=C\C=C\[C@H](C)[C@H](O)[C@@H](C)[C@@H](O)[C@@H](C)[C@H](OC(C)=O)[C@@H]1C` [Rifampicin, reference compound], in series [1] (setting [4]), the IC50 is 8500 nM. The same molecule yielded an inhibition at 10 µM in series [1] of 58.8%.

The record behind these values is publication PMC9316523, “Design, Synthesis and Molecular Docking of Novel Acetophenone-1,2,3-Triazoles Containing Compounds as Potent Enoyl-Acyl Carrier Protein Reductase (InhA) Inhibitors” (Pharmaceuticals, 2022).
